The source of these data is ChEMBL document CHEMBL1130998, “Structure-activity requirements for flavone cytotoxicity and binding to tubulin” (J Med Chem, 1998).

The subject of assay [1] is Panel NCI-60 (60 carcinoma cell lines). Kind of assay: In vitro cytotoxic potency against NCI-60 human tumor cell line. In kind it is functional.
A further assay deals with Tubulin. The experiment in a line: In vitro inhibitory activity against tubulin polymerization (10 uM). In kind it is protein-complex assay.
For a further assay, the target named is Tubulin (Homo sapiens) (UniProt P68371+Q9H4B7+P0DPH7+P68366+Q13509+Q71U36+P04350+Q3ZCM7+P07437+P68363+Q9BQE3+Q6PEY2+Q13885+Q9BVA1+Q9BUF5). The experiment in a line: In vitro inhibition of binding of [3H]colchicine to tubulin at 50 mM. It is filed as protein-complex assay.

pIC50: −log10 of the molar value.

A word on the GI50: it is the concentration that inhibits growth by half. Low readings indicate greater sensitivity of the cells, high ones lower sensitivity of the cells. As to `COc1cc2oc(-c3ccc(O)cc3)cc(=O)c2c(OC)c1O`, the GI50 in assay [1] came to 62 µM.
Molecule `COc1ccc(-c2oc3cc(OC(C)=O)cc(OC(C)=O)c3c(=O)c2OC)cc1` gave a GI50 in assay [1] of 15 µM.
As a reminder, the pIC50 is −log10 of the IC50, conventionally taken in molar units. A lower pIC50 goes with a large IC50. By inhibition is commonly meant the percentage by which the read-out fell short of the control. Low values mean little suppression, high ones strong suppression. Molecule `COc1cc(-c2oc3c(OC)c(OC)c(OC)c(O)c3c(=O)c2OC)ccc1O` gave a GI50 in assay [1] of 7.6 µM. Further, at Tubulin, the pIC50 is below 4.40. The molecule further yielded an inhibition at Tubulin (Homo sapiens) of 0%.
The molecule `COc1c(OC)c(OC)c2c(=O)cc(-c3ccc(OC(C)C)cc3)oc2c1OC` yielded a GI50 in assay [1] of 11 µM.
The same measure, in the same setting: under `COc1ccc(-c2cc(=O)c3cc(O)ccc3o2)c(OC)c1OC` stands 30 µM; under `COc1c(OC)c(OC)c(-c2cc(=O)c3c(OC)c(OC)c(OC)c(OC)c3o2)c(OC)c1OC`, 36 µM; under `COc1cc(-c2cc(=O)c3c(OC)c(OC)c(OC)c(OC)c3o2)cc(OC)c1OC` [HEPATAMETHOXYFLAVONE], 32 µM.
Regarding `COc1cc(OC)c2c(=O)c(O)c(-c3ccc(OC)c(OC)c3)oc2c1`, the GI50 in assay [1] came out at 6.6 µM. This molecule showed a pIC50 at Tubulin below 4.40. This molecule displayed an inhibition at Tubulin (Homo sapiens) of 0%.
For `COc1cc(-c2cc(=O)c3c(O)c(OC)c(OC)c(OC)c3o2)cc(OC)c1OC` [GARDENIN], in that order: 19 µM, below 4.40 and 0%.
Regarding `COc1cc(OC)c2c(=O)c(OC)c(-c3ccc(OC)c(O)c3)oc2c1`, the GI50 in assay [1] was above 100 µM.
Same read-out and setting: as for `COc1ccc(-c2oc3ccccc3c(=O)c2O)cc1OC` [3-HYDROXY-3',4'-DIMETHOXYFLAVONE], the figure is 32 µM.
In assay [1], `COc1ccc(-c2cc(=O)c3c(O)c(OC)c(O)cc3o2)cc1OC` [EUPATILIN] came in with a GI50 of 15 µM. On Tubulin, this molecule had a pIC50 below 4.40. Further, at Tubulin (Homo sapiens), the inhibition was 6%.
The molecule `COc1ccc(-c2cc(=O)c3c(O)cc(O)cc3o2)c(OC)c1OC` registered a GI50 in assay [1] of 68 µM.
On the same count and under the same terms, under `COc1ccc(-c2oc3cc(OC)ccc3c(=O)c2O)cc1` stands 4.2 µM; under `COc1c(OC)c(O)c2c(=O)cc(-c3ccc(O)c(O)c3)oc2c1OC` [SIDERITIFLAVONE], 4 µM.
On the same count and under the same terms, under `COc1ccc(-c2cc(=O)c3c(O)cc(O)cc3o2)cc1OC` stands 48 µM; under `COc1c(C)c(O)c2c(=O)cc(-c3ccccc3)oc2c1C`, above 100 µM; under `COc1ccccc1-c1cc(=O)c2ccc(OC)c(OC)c2o1`, 55 µM.
Still for that read-out and setting: under `COc1ccc(-c2cc(=O)c3c(O)cc(C)cc3o2)cc1OC` stands above 100 µM.
As to `COc1cc(OC)c(-c2oc3ccccc3c(=O)c2O)c(OC)c1`, it took 5.9 µM to inhibit growth in assay [1] by half (GI50). The molecule also had a pIC50 at Tubulin of 4.51. For the same molecule, on Tubulin (Homo sapiens), the inhibition came out at 22%.
`COc1ccc(-c2cc(=O)c3c(OC)c(O)c(OC)cc3o2)cc1` yielded a GI50 in assay [1] of 43 µM.
Turning to `COc1ccc(-c2cc(=O)c3c(O)c(OC)c(O)cc3o2)cc1O`, growth in assay [1] was halved (GI50) at 6 µM.
Still for that read-out and setting: as for `COc1cc(-c2oc3c(OC)c(O)c(OC)c(O)c3c(=O)c2OC)cc(O)c1OC`, the figure is 32 µM.
In turn, `COc1ccc(-c2oc3c(OC)c(OC)c(OC)c(OC)c3c(=O)c2OC)cc1OC` [3,5,6,7,8,3',4'-HEPTAMETHOXYFLAVONE] had a GI50 in assay [1] above 27 µM. The molecule further showed a pIC50 against Tubulin below 4.40. The inhibition at Tubulin (Homo sapiens) came out at 1%.
`O=c1c(O)c(-c2ccc(O)c(O)c2)oc2cc(O)ccc12` [FISETIN] returned a GI50 in assay [1] of 18 µM.
Still for that read-out and setting: as for `COc1cc2oc(-c3ccccc3)cc(=O)c2c(O)c1C`, the figure is above 100 µM; as for `CCOc1cc(O)c2c(=O)c(OC)c(-c3ccc(OC)c(O)c3)oc2c1`, 12 µM.
In the case of `COc1ccc2c(=O)c(O)c(-c3ccc(OC)c(OC)c3)oc2c1`, the GI50 in assay [1] came to 5.5 µM. The molecule further gave a pIC50 on Tubulin below 4.40. The molecule also displayed an inhibition on Tubulin (Homo sapiens) of 0%.
`COc1cc(OC)cc(-c2cc(=O)c3c(OC)c(OC)c(OC)c(OC)c3o2)c1` had a GI50 in assay [1] of 30 µM.
The same measure, in the same setting: as for `O=c1c(O)c(-c2cc(O)c(O)c(O)c2)oc2cc(O)cc(O)c12` [MYRICETIN], the figure is 36 µM; as for `COc1ccc2c(=O)cc(-c3ccc(OC)c(OC)c3OC)oc2c1`, 78 µM.
The same measure, in the same setting: under `COc1ccc(-c2oc3cc(O)c(OC)cc3c(=O)c2OC)cc1O` stands 19 µM; under `COc1ccc(-c2oc3cc(OC)c(O)c(OC)c3c(=O)c2OC)cc1O`, 54 µM.
The molecule `COc1cc(O)c2c(=O)c(O)c(-c3ccc(O)c(O)c3)oc2c1` [RHAMNETIN] returned a GI50 in assay [1] of 8.9 µM.
In assay [1], `COc1ccc(-c2oc3cc(OC)cc(O)c3c(=O)c2OC)cc1` gave a GI50 of 54 µM.
Still for that read-out and setting: under `COc1ccc(-c2cc(=O)c3c(OC)c(OC)c(OC)cc3o2)cc1` stands 28 µM; under `COc1cc(O)c2c(=O)c(OC)c(-c3ccc(OC)c(OC)c3)oc2c1` [RETUSIN], 65 µM; under `COc1ccc(-c2oc3cc(O)c(C)c(C)c3c(=O)c2OC)cc1O`, 12 µM.
With `COc1ccc(-c2cc(=O)c3c(OC)c(OC)c(OC)c(OC)c3o2)c(OC)c1`, the GI50 in assay [1] was determined as 26 µM.
The same measure, in the same setting: under `COc1ccc(-c2oc3cc(O)c(OC)c(O)c3c(=O)c2O)cc1` [BETULETOL] stands 4.1 µM; under `COc1c(O)cc2oc(-c3ccc(O)cc3)cc(=O)c2c1O` [HISPIDULIN], 33 µM.
Same read-out and setting: as for `COc1ccc(-c2oc3cc(O)cc(O)c3c(=O)c2OC)cc1OCc1ccccc1`, the figure is 8.3 µM; as for `COc1c(O)c(OC)c2oc(-c3ccc(O)c(O)c3)c(OC)c(=O)c2c1O`, 20 µM.
On the same count and under the same terms, under `COc1cc(-c2cc(=O)c3c(O)c(OC)c(OC)c(OC)c3o2)ccc1O` stands 22 µM; under `COc1ccc(-c2oc3ccc(C)cc3c(=O)c2O)cc1`, 76 µM; under `COc1ccc(-c2oc3cc(OC)c(C)c(C)c3c(=O)c2OC)cc1O`, 44 µM.
`COc1cc(-c2oc3cc(OC)c(OC)c(O)c3c(=O)c2OC)ccc1O` [CHRYSOSPLENOL B] displayed a GI50 in assay [1] above 33 µM.
In assay [1], `COc1ccc(-c2cc(=O)c3c(O)c(OC)c(O)cc3o2)cc1` [PECTOLINARIGENIN] registered a GI50 above 31 µM. Besides, the pIC50 against Tubulin is below 4.40. At Tubulin (Homo sapiens), this molecule came in with an inhibition of 11%.
As to `COc1ccc(-c2oc3cc(O)cc(O)c3c(=O)c2OC)cc1` [ERMANIN], in assay [1], the GI50 was found to be 24 µM.
On the same count and under the same terms, as for `COc1ccc2oc(-c3ccc(OC)c(OC)c3OC)cc(=O)c2c1`, the figure is 42 µM.
For the molecule `COc1cc(-c2oc3c(OC)c(O)c(OC)c(O)c3c(=O)c2OC)ccc1O`, in assay [1], the GI50 came out at 27 µM. The same molecule gave a pIC50 on Tubulin below 4.40. Moreover, the inhibition at Tubulin (Homo sapiens) stood at 6%.
`O=c1c(O)c(-c2ccc(O)c(O)c2)oc2cc(O)cc(O)c12` [QUERCETIN] yielded a GI50 in assay [1] of 60 µM.
Same read-out and setting: under `COc1ccc(-c2cc(=O)c3c(OC)cccc3o2)c(OC)c1OC` stands 89 µM.
In assay [1], `COc1ccc(-c2cc(=O)c3c(O)c(OC)c(OC)c(OC)c3o2)cc1OC` [5-DEMETHYLNOBILETIN] had a GI50 of 17 µM. This molecule had a pIC50 against Tubulin below 4.40. The molecule also yielded an inhibition at Tubulin (Homo sapiens) of 5%.
`COc1ccc(-c2oc3c(OC)c(OC)c(OC)c(O)c3c(=O)c2OC)cc1OC` had a GI50 in assay [1] of 7.1 µM. For the same molecule, the pIC50 against Tubulin was below 4.40. For the same molecule, the inhibition at Tubulin (Homo sapiens) was 4%.
In assay [1], `COc1ccc(OC)c(-c2cc(=O)c3c(OC)c(OC)c(OC)c(OC)c3o2)c1` yielded a GI50 of 24 µM.
Consider `COc1cc(-c2oc3c(OC)c(OC)cc(O)c3c(=O)c2OC)ccc1O` [TERNATIN], for which it took 9.5 µM to inhibit growth in assay [1] by half (GI50). Besides, the pIC50 against Tubulin was below 4.40. On Tubulin (Homo sapiens), this molecule registered an inhibition of 0%.
In assay [1], `COc1cc(OC)c2c(=O)cc(-c3ccc(OC)c(OC)c3OC)oc2c1` yielded a GI50 of 79 µM.
In turn, `COc1ccc(-c2oc3cc(OC)c(OC)c(O)c3c(=O)c2O)cc1O` had a GI50 in assay [1] of 4 µM. The same molecule had a pIC50 against Tubulin below 4.40. In addition, the inhibition at Tubulin (Homo sapiens) is 9%.
For the molecule `COc1cc(-c2oc3c(OC)cc(OC)c(O)c3c(=O)c2OC)cc(OC)c1OC`, in assay [1], the GI50 came out at 19 µM.
The molecule `COc1ccc(-c2oc3cc(OC)c(OC)c(OC)c3c(=O)c2O)cc1O` had a GI50 in assay [1] of 14 µM. This molecule had a pIC50 on Tubulin below 4.40. This molecule also had an inhibition on Tubulin (Homo sapiens) of 2%.
For `COc1cc(OC)c(-c2cc(=O)c3c(O)c(OC)c(OC)c(OC)c3o2)cc1OC`, it took 60 µM to inhibit growth in assay [1] by half (GI50).
On the same count and under the same terms, as for `COc1ccc(-c2cc(=O)c3ccc(O)cc3o2)c(OC)c1OC`, the figure is 58 µM.
Molecule `COc1ccc(-c2cc(=O)c3c(O)cccc3o2)c(OC)c1OC` came in with a GI50 in assay [1] of 45 µM.
For `COc1ccc(-c2cc(=O)c3c(O)c(OC)c(O)c(OC)c3o2)cc1` [NEVADENSIN], it took 59 µM to inhibit growth in assay [1] by half (GI50).
Same read-out and setting: as for `COc1ccc(-c2cc(=O)c3c(O)c(O)c(OC)cc3o2)cc1O`, the figure is above 100 µM; as for `COc1ccc(-c2oc3c(O)c(OC)cc(O)c3c(=O)c2OC)cc1OC`, above 100 µM.
On the same count and under the same terms, as for `COc1cc2oc(-c3ccc(O)cc3)cc(=O)c2c(OC)c1OC`, the figure is above 100 µM.
The same measure, in the same setting: under `COc1ccc(-c2cc(=O)c3c(OC)c(OC)c(OC)c(OC)c3o2)cc1OC` [NOBILETIN] stands 40 µM; under `COc1cc(O)c2c(=O)c(O)c(-c3ccc(OC)c(O)c3)oc2c1` [OMBUINE], 37 µM.
`COc1ccc(-c2cc(=O)c3c(OC)c(OC)c(OC)c(OC)c3o2)cc1` [TANGERETIN]: the GI50 in assay [1] came to 54 µM.
Still for that read-out and setting: under `O=c1c(O)c(-c2c(O)cccc2O)oc2cc(O)cc(O)c12` stands above 100 µM.
As for `COc1cc(-c2oc3c(OC)c(O)c(OC)c(O)c3c(=O)c2OC)cc(OC)c1OC`, halving of growth in assay [1] (GI50) required 54 µM. This molecule had a pIC50 on Tubulin below 4.40. Besides, the inhibition at Tubulin (Homo sapiens) was 6%.
For `COc1cc(O)c2c(=O)c(OC)c(-c3ccc(OC)c(O)c3)oc2c1` [AYANIN], in that order: 32 µM, below 4.40 and 0%.
On to `COc1cc(-c2cc(=O)c3ccccc3o2)cc(OC)c1OC`, for which, in assay [1], the GI50 amounted to 18 µM. At Tubulin, this molecule showed a pIC50 below 4.40. Besides, the inhibition on Tubulin (Homo sapiens) was determined as 0%.
